# Measurements reported in US5916914A, “Compounds and method of treating psychosis and schizophrenia” (priority 1997, dated 1999).
# Structures can show the parent of a compound that is named as a salt.
# Legend:
# [1] = biological target: T1, human recombinant dopamine D4.2 receptor (Homo sapiens, UniProt P21917, DEL265-296); assay: Receptor binding assay, D4.2 ([^3 H]spiperone)
# T1 construct: expressed in transfected cells
# T1 sequence (P21917 with tags, fused parts or gaps DEL265-296): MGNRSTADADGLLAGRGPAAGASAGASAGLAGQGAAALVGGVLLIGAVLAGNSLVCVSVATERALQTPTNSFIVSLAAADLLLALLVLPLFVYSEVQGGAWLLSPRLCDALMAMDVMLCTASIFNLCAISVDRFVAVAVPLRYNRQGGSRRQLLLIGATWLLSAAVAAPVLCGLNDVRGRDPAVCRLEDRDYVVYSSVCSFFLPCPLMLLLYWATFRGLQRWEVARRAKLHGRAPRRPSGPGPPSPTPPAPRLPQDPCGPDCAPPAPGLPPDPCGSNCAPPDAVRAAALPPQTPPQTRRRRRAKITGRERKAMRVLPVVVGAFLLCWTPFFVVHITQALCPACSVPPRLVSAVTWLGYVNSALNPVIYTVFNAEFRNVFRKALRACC
# Source text: (§1) A cell line expressing human dopamine D2 (Long form) receptors was purchased from Oregon Health Sciences University, Portland, Oreg. The D2 receptor cDNA was subcloned into an expression vector, pRc/CMV. The plasmids were transfected by electroporation into CHO K1 cells. A single stable transfectant, resistant to the antibiotic G418, was isolated and selected for use in the binding studies. For D4 binding, CHO K1 cells stably transfected to express the human recombinant dopamine D4.2 receptor subtype, as described by Shih, et al., "The expression and functional characterization of human dopamine D4.2 receptor in CHO K1 cells," Soc. Neurosci., 1995;21 (Part 1):621 were used.
# (§2) CHO K1 cells expressing either human D2 and D4.2 receptors were grown in 162 cm^2 culture flasks in F12 medium (Gibco Laboratories, Grand Island, N.Y.) supplemented with 10% fetal bovine serum (FBS, Hyclone, Logan, Utah) in an atmosphere of 5% CO2 /95% air at 37 EC. Cells were grown until confluent, after which growth medium was removed and replaced with 0.02% ethylene diamine tetracetate (EDTA) in a phosphate-buffered saline solution (Sigma Chemical Co., St. Louis, Mo.) and scraped from the flasks. The cells were centrifuged at about 1000×g for 10 minutes at 4° C. and then resuspended in TEM buffer (25 mM Tris-HCL, pH 7.4, 5 mM EDTA, and 6 mM MgCl2) for D2 or the D4.2 buffer (50 mM Tris-HCl, pH 7.4, 5 mM EDTA, 1.5 mM CaCl2, 5 mM KCl, and 120 mM NaCl) and homogenized. The membranes were pelleted by centrifugation at 20000×g at 4° C. for 20 minutes. Then the pellets were resuspended in appropriate buffer at 1 mL/flask and stored at -70° C. until used in the receptor binding assay.
# (§3) After 60 minutes incubation at 25° C., the incubations were terminated by rapid filtration through Whatmann GF/B glass fibre filters (soaked for 1 hour in 0.5% polyethylenimine) on a cell harvester, with three washes of 1 mL ice-cold buffer. Individual filter disks containing the bound ligand were placed in counting vials with 4 mL of scintillation fluid (Ready Gel, Beckman Instrument, Inc., Fullerton, Calif.) and then counted in a Beckman LS-6800 liquid scintillation counter at an efficiency of 45%. Nonspecific binding was defined in presence of 1 mM of haloperidol.
# (§4) Saturation and competition binding data were analyzed using an iterative nonlinear least square curve-fitting Ligand program. […] Experimental compounds were made up as stock solutions in dimethyl sulfoxide (DMSO). […] Each observation was carried out in triplicate. To allow these calculations, Kd values were measured for the interaction of various ligands with the receptor. […]
# [2] = biological target: human dopamine D2 (Long form) receptors (Homo sapiens, UniProt P14416); assay: biochemical; type: binding
# human dopamine D2 (Long form) receptors, sequence (P14416 whole entry): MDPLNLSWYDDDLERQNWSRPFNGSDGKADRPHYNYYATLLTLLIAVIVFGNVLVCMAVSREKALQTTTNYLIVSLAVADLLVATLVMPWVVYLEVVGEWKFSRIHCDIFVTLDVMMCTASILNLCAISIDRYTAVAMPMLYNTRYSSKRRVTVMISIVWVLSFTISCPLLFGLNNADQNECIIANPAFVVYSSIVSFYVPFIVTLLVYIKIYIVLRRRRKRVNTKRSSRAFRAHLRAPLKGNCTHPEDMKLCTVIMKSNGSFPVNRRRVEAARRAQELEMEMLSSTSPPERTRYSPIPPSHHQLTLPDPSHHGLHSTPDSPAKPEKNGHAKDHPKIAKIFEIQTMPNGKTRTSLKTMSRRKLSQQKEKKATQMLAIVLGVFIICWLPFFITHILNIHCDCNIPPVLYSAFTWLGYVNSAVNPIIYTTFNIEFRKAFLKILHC
# Source text: as §1, §2, §3, §4
SMILES,Ki [1],Ki [2]
"O=c1ccc2ccc(CNCCSc3ccccc3)cc2o1 [Example 4p, 7-[(2-Phenylsulfanyl-ethylamino)-methyl]-chromen-2-one hydrochloride]",394 nM,
"Cc1ccc(OCCNCc2ccc3oc(=O)ccc3c2)cc1 [Example 4k, 6-[(2-p-Tolyloxy-ethylamino)-methyl]-chromen-2-one]",23.8 nM,5880 nM
"O=c1ccc2ccc(CNCCCOc3ccc(Cl)cc3)cc2o1 [Example 4r, 7-{[3-(4-Chloro-phenoxy)-propylamino]-methyl}-chromen-2-one]",92 nM,
"O=c1ccc2ccc(OCCNCCCOc3ccccc3)cc2o1 [Example 2c, 7-[2-(3-Phenoxy-propylamino)-ethoxy]-chromen-2-one hydrochloride]",1.6 nM,249 nM
"O=c1ccc2cc(CNCCNc3ccccc3)ccc2o1 [Example 4g, 6-[(2-Phenylamino-ethylamino)-methyl]-chromen-2-one]",311 nM,
"O=c1ccc2cc(CNCCOc3ccc(Cl)cc3)ccc2o1 [Example 4l, 6-{[2-(4-Chloro-phenoxy)-ethylamino]-methyl}-chromen-2-one]",13.5 nM,4870 nM
"O=c1ccc2cc(CNCCCOc3ccccc3)ccc2o1 [Example 4t, 6-[(3-Phenoxy-propylamino)-methyl]-chromen-2-one]",20 nM,1070 nM
"O=c1ccc2ccc(CNCCNc3cccc(Cl)c3)cc2o1 [Example 4d, 7-{[2-(3-Chloro-phenylamino)-ethylamino]-methyl}-chromen-2-one dihydrochloride]",42 nM,
"O=c1ccc2ccc(CNCCOc3ccccc3)cc2o1 [Example 4m, 7-[(2-Phenoxy-ethylamino)-methyl]-chromen-2-one]",43 nM,
"O=c1ccc2ccc(CNCCCc3ccccc3)cc2o1 [Example 4q, 7-[(3-Phenyl-propylamino)-methyl]-chromen-2-one]",60 nM,
"Cc1cc(=O)oc2ccc(OCCNCCCOc3ccccc3)cc12 [Example 3a, 4-Methyl-6-[2-(3-phenoxy-propylamino)-ethoxy]-chromen-2-one hydrochloride]",70.2 nM,
"c1ccc(OCCCNCCOc2ccc3oc4ccccc4c3c2)cc1 [Example 2d, [2-(Dibenzofuran-2-yloxy)-ethyl]-(3-phenoxypropyl)-amine hydrochloride]",78.7 nM,
"O=c1ccc2ccc(CNCCOc3ccc(Cl)cc3)cc2o1 [Example 4o, 7-{[2-(4-Chloro-phenoxy)-ethylamino]-methyl}-chromen-2-one]",9.5 nM,286 nM
"O=c1ccc2cc(CNCCOc3ccccc3)ccc2o1 [Example 4j, 6-[(2-Phenoxy-ethylamino)-methyl]-chromen-2-one hydrochloride]",64 nM,
"Cc1cc(=O)oc2cc(OCCNCCCOc3ccccc3)ccc12 [Example 3, 4-Methyl-7-[2-(3-phenoxy-propylamino)-ethoxy]-chromen-2-one Hydrochloride]",1.9 nM,231 nM
"Cc1ccc(OCCNCc2ccc3ccc(=O)oc3c2)cc1 [Example 4n, 7-[(2-p-Tolyloxy-ethylamino)-methyl]-chromen-2-one]",3.9 nM,195 nM
"c1ccc(OCCCNCCOc2ccc3occc3c2)cc1 [Example 3b, [2-(Benzofuran-5-yloxy)-ethyl]-(3-phenoxy-propyl)-amine hydrochloride]",1.2 nM,502 nM
"O=c1ccc2ccc(CNCCCNc3ccccc3)cc2o1 [Example 4i, 7-[(3-Phenylamino-propylamino)-methyl]-chromen-2-one]",31 nM,
"O=c1ccc2ccc(CNCCNc3ccc(CO)c(Cl)c3)cc2o1 [Example 4a, 7-{[2-(3-Chloro-4-hydroxymethyl-phenylamino)-ethylamino]-methyl}-chromen-2-one]",95 nM,
"Cc1ccc(OCCCNCc2ccc3ccc(=O)oc3c2)cc1 [Example 4s, 7-[(3-p-Tolyloxy-propylamino)-methyl]-chromen-2-one]",234 nM,
"c1ccc(OCCCNCCOc2ccc3ncccc3c2)cc1 [Example 2a, (3-Phenoxy-propyl)-[2-quinolin-6-yloxy)-ethyl]-amine hydrochloride]",12.8 nM,578 nM
